From patent publication US9499496B2, “Inhibitors of respiratory syncytial virus” (University of Kansas, priority 2012, dated 2016)
Where “and” joins values, the source holds several entries; their conditions need not be identical. Equal entries are not always repeated. Where two headings read alike, the source gives them in different places. Marks after values point to notes of the source that are not given here.

Tests used:
RSV [1] = experiment: RSV CPE assay (inhibition of RSV-induced cytopathic effect, luminescent cell viability readout); format: cell-based, RSV (strain Long); settings: for Selectivity Index (CC50/EC50): antiviral activity over HEp-2 cell cytotoxicity
RSV [2] = experiment: RSV plaque reduction assay (titer reduction); format: cell-based, RSV Long strain; settings: HEp-2 cells; for Plaque Reduction Assay (log reduction): concentration not given; for Plaque Reduction Assay (log reduction) at 10 μM: 10 μM test compound
in vitro [3] = settings: human
HEp-2 cells = settings: HEp-2 cell cytotoxicity
physchem [4] = settings: 23 °C, pH 7.4, aqueous buffer
physchem [5] = settings: plasma or biological fluid
[6] = Stability in PBS over 48 h; settings: for Stability in PBS (% parent remaining after 48 h), with acetonitrile: PBS with 50% acetonitrile; for Stability in PBS (% parent remaining after 48 h): no additives, 23° C.
RSV [7] = experiment: Time of addition CPE assay; format: cell-based, RSV Long strain; settings: for Change in cell viability with time of addition: addition at time points between 7-24 hours post-infection
Protocol: Assay Description: HEp-2 cells were plated in 96 well black tissue culture plates at 10,000 cells per well in 80 μl and incubated 24 hours at 37° C., 5% CO2. All cell plating was conducted using a Matrix WellMate™ and cells were maintained at room temperature with stirring during the plating process. Compounds were diluted in media to give a final concentration of 25 μM and added to plates at −1, 0, 1, 4, 6, 20 and 24 hours post-infection (p.i.). The cells were infected with RSV Long strain at an MOI of 3 and the assay plates were incubated for six days at 37° C., 5% CO2 and 90% relative humidity.
The Cell Titer Glo® assay was used to determine viability of the cells. The assay plates were equilibrated to room temperature for 10 minutes and then an equal volume of Cell Titer-Glo reagent (Promega Inc.) was added to each well. Plates were incubated for 10 min at room temperature and luminescence was measured using a multi-label plate reader with an integration time of 0.1 s.
A cell-based assay was used to determine the ability of the probe to inhibit different stages of a single round of viral replication. […] Compounds B and F (diamonds and squares, respectively) are of similar chemical structure. The percent cell viability values at each time point for the respective molecules are compared with that of ribavirin (RBV). […] This sustained efficacy may be due to the inhibition of one or more late virus life cycle steps (post-entry or late-stage infection processes), and this hypothesis is supported by an ability to affect processes later in the viral replication cycle.

vaccinia = format: cell-based
influenza A = format: cell-based
[8] = tested on: Venezuelan equine encephalitis; format: cell-based
dengue viruses = format: cell-based
[9] = tested on: Calcium Channel L-Type, Benzothiazepine; experiment: Ricerca LeadProfiling screen; format: binding; settings: 10 μM, duplicate, rat
[10] = tested on: Calcium Channel L-Type, Dihydropyridine; experiment: Ricerca LeadProfiling screen; format: binding; settings: 10 μM, duplicate, rat
[11] = tested on: Ricerca LeadProfiling screen made up of 67 assays; experiment: Ricerca LeadProfiling screen, all other targets of the 67 assays; format: binding; settings: 10 μM, duplicate
in vitro [12] = settings: PAMPA
[13] = human respiratory syncytial virus, HEp-2 cells, RSV-induced CPE, read-out: CPE Assay EC50

SMILES	EC50 (RSV [1]; [13]) [nM]	Plaque Reduction Assay (log reduction) (RSV [2])	CC50 at 6 days (in vitro [3]; CC50, HEp-2 cell cytotoxicity) [nM]	Selectivity Index (CC50/EC50) (RSV [1])	Plaque Reduction Assay (log reduction) at 10 μM (RSV [2])	solubility (physchem [4])	solubility (physchem [5])	Change in cell viability with time of addition (RSV [7])	further results
COCCCNC(=O)c1ccc(Cn2c(=O)c3ccccc3n(Cc3ccc(C)cc3)c2=O)cc1 [hit compound, 4-((1-(4-methylbenzyl)-2,4-dioxo-1,2-dihydroquinazolin-3(4H)-yl)methyl)-N-(3-methoxypropyl)benzamide]	2140	4.15 log reduction	59500	–	–	–	–	–	–
CN(C)c1ccc(Cn2c(=O)n(Cc3ccc(C(=O)NCC4COC4)cc3)c(=O)c3ccccc32)cc1 [Compound E, 4-((1-(4-(dimethylamino)benzyl)-2,4-dioxo-1,2-dihydroquinazolin-3(4H)-yl)methyl)-N-(oxetan-3-ylmethyl)benzamide]	1070 ± 220	>6.18 log reduction	~50000	41.8	>6.18 log reduction	5.6 µg/mL and 11.2 µM	9.2 µg/mL and 18.4 µM	–	Plaque Reduction Assay (log reduction) (RSV [2]; listed as FIG. 5, entry 7): > 6 log reduction; CC50 (HEp-2 cells): 44700 ± 7220 nM
CCc1ccc(Cn2c(=O)n(Cc3ccc(C(=O)NCCCOC)cc3)c(=O)c3ccccc32)cc1 [Compound D, 4-((1-(4-ethylbenzyl)-2,4-dioxo-1,2-dihydroquinazolin-3(4H)-yl)methyl)-N-(3-methoxypropyl)benzamide]	1000 ± 50	5.90 log reduction	94800 ± 3750	94.9 and 94.5	5.90 log reduction	–	1.5 µg/mL and 3.09 µM	–	–
COCCCNC(=O)c1ccc(Cn2c(=O)c3ccccc3n(Cc3ccc(Br)cc3)c2=O)cc1 [Compound C, 4-((1-(4-bromobenzyl)-2,4-dioxo-1,2-dihydroquinazolin-3(4H)-yl)methyl)-N-(3-methoxypropyl)benzamide]	850 ± 150	4.07 log reduction	98800 ± 8700	118.9	4.07 log reduction	0.31 µg/mL and 0.58 µM	2.7 µg/mL and 5.03 µM	–	Stability in PBS (% parent remaining after 48 h), with acetonitrile [6]: 100% (with; Stability in PBS (% parent remaining after 48 h) [6]: 57.5% (PBS);
Cc1ccc(Cn2c(=O)n(Cc3ccc(C(=O)NCC4COC4)cc3)c(=O)c3ccccc32)cc1 [Compound F, 4-((1-(4-methylbenzyl)-2,4-dioxo-1,2-dihydroquinazolin-3(4H)-yl)methyl)-N-(oxetan-3-ylmethyl)benzamide]	710 ± 130	5.1 log reduction	–	–	5.10 log reduction	4.5 µg/mL and 0.75 µM	4.5 µg/mL and 9.58 µM	does not result in a dramatic change in cell viability	EC50 (RSV [1]; human respiratory syncytial virus, HEp-2 cells, read-out: CPE EC50 (potency) as given): ~700 nM
COCCCNC(=O)c1ccc(Cn2c(=O)c3ccccc3n(Cc3ccc(C(C)C)cc3)c2=O)cc1 [Compound A, 4-((1-(4-isopropylbenzyl)-2,4-dioxo-1,2-dihydroquinazolin-3(4H)-yl)methyl)-N-(3-methoxypropyl)benzamide]	–	6.70 log reduction	> 200000	–	6.7 log reduction and 6.70 log reduction	–	–	does not result in a dramatic change in cell viability	EC50 (RSV [1]; human respiratory syncytial virus, read-out: RSV CPE assay, repeated, repeat of the RSV CPE assay): 340 nM; EC50 (RSV [1]; read-out: CPE Assay EC50, HEp-2 cells, RSV-induced CPE): 810 nM; Latest effective time of addition (RSV [7]; single round of viral replication, compound added −1 to 24 h post-infection): > 24 hours post-infection; Efficacy in inhibiting vaccinia (vaccinia): no efficacy; Efficacy in inhibiting influenza A (influenza A): no efficacy; Efficacy in inhibiting Venezuelan equine encephalitis virus [8]: no efficacy; Efficacy in inhibiting dengue viruses (dengue viruses): no efficacy; Percent Inhibition [9]: 52%; Percent Inhibition [10]: 70%; Inhibition, all other targets [11]: below 34%
NC(=O)c1ncn([C@@H]2O[C@H](CO)[C@@H](O)[C@H]2O)n1 [ribavirin, reference compound]	28400	–	–	–	2.47 log reduction	–	–	–	Protection of cells from RSV-induced CPE (RSV [7]; added up to 7 hours post-infection): approximately 100%; CC50 at 6 days (in vitro [3]): 114000 ± 38500 nM
COCCCNC(=O)c1ccc(Cn2c(=O)c3ccccc3n(Cc3ccc([N+](=O)[O-])cc3)c2=O)cc1 [Compound B, N-(3-methoxypropyl)-4-((1-(4-nitrobenzyl)-2,4-dioxo-1,2-dihydroquinazolin-3(4H)-yl)methyl)benzamide]	570 ± 14	>5.56^a log reduction	128000 ± 4240	–	>5.56 log reduction	–	–	does not result in a dramatic change in cell viability	EC50 (RSV [1]; human respiratory syncytial virus, repeat of the RSV CPE assay, read-out: RSV CPE assay, repeated): 200 nM; CC50 (HEp-2 cells): > 128000 nM; Stability in PBS (% parent remaining after 48 h), with acetonitrile [6]: 94.9% (with; Stability in PBS (% parent remaining after 48 h) [6]: 83.4% (PBS);
CNC(=C[N+](=O)[O-])NCCSCc1ccc(CN(C)C)o1 [Ranitidine]	–	–	–	–	–	–	–	–	Papp (in vitro [12]): < 10 ×10⁻⁶ cm/s; Papp (in vitro [12]; pH 7.4): < 10 ×10⁻⁶ cm/s
